# Laboratory results taken from patent US12258377B2 (Scancell Limited, priority 2012, dated 2025).
# Square brackets hold non-standard residues; d marks the D form. Ends that are not written are not given here. Cit = NC(=O)NCCC[C@H](N)C(=O)O
# Key:
# splenocytes [1] = test: Ex vivo elispot assay on splenocytes of immunised HLA-DR1 / HLA-A2/DR1 (HHDII/DR1) transgenic mice; assay type: in vivo
# Method: (§1) C57BL/6 mice (Charles River, UK), HLA-DR4 mice (Taconic, USA), HHDII mice (Pasteur institute, France) and HHDII/DRI mice (Pasteur institute, France) were used, aged between 8 and 12 weeks, and cared for by the staff at Nottingham Trent University. All work was carried out under a Home Office project license. Peptides were dissolved in 10% Dimethylformamide to 1 mg/ml and then emulsified (a series of dilutions) with different adjuvants: CpG and MPLA 6 μg/mouse of each (Invivogen, UK), Incomplete Freund's […] (Sigma, UK), and GMCSF 10 μg/mouse (Peprotech, UK). Peptides (25 μg/mouse) were injected subcutaneously at the base of the tail. DNA (1 μg/mouse) was coated onto 1.0 μm gold particles (BioRad, Hemel Hempstead, UK) using the manufacturer's instructions and administered intradermally by genegun (BioRad). Homspera (10 nM/mouse) (PeptideSynthetics, UK) was injected intradermally with genegun immunisation. Mice were immunized at either day 0 for peptide immunisation or days, 0, 7, and 14 for peptide and genegun immunisation. Spleens were removed for analysis at day 14 for peptide and day 20 for peptide or genegun immunisation unless stated otherwise. 400 μg Anti-CD25 antibody (PC61) was administered i.p. in saline 3 days prior to the immunisation. 200 μg Anti-CTLA-4 antibody (UC 10-4F, 10-11) was administered i.p. in saline at day 7 and 14 with either genegun or peptide immunisation.
# (§2) Elispot assays were performed using murine IFNγ, IL-17 and IL-10 capture and detection reagents according to the manufacturer's instructions (Mabtech, Sweden). In brief, anti-IFNγ, IL-17 and IL-10 antibodies were coated onto wells of 96-well Immobilin-P plate. Synthetic peptides (at a variety of concentrations) and 5×10^5 per well splenocytes were added to the wells of the plate in triplicate. Tumour target cells were added where relevant at 5×10^4/well in triplicate and plates incubated for 40 hrs at 37° C. After incubation, captured IFNγ, […], IL-17 and IL-10 were detected by biotinylated anti-IFNγ, IL-17 and IL-10 antibodies and developed with a strepatavidin alkaline phosphatase and chromogenic substrate. Spots were analysed and counted using an automated plate reader (Cellular Technologies Ltd). Functional avidity was calculated as the concentration mediating 50% maximal effector function using a graph of effector function versus peptide concentration.
# splenocytes [2] = test: Ex vivo elispot assay on splenocytes of immunised C57B1 mice; assay type: in vivo, C57BL/6 mice; settings: combination of 3 citrullinated peptides (3×10 μg) with CpG and MPLA; day 14; C57B1/6 mice
# Method: as §1, §2
# splenocytes [3] = test: Ex vivo elispot assay on splenocytes of immunised HLA-DR4 transgenic mice; assay type: in vivo; settings: for IFNg elispot response to citrullinated peptide over unmodified peptide or background control: citrullinated peptides 25 ug s.c. in CpG and MPLA, FIG. 34; for IL-10 elispot responses: against wild type and citrullinated peptides; for IFNγ elispot response to wild type peptide, mean / IFNγ elispot response to citrullinated peptide, mean: day 14 splenocytes; for IFNγ elispot response against vimentin 28-49 triple, double and single citrullinated peptides: peptide immunisation, FIG. 11
# Method: as §1, §2
# PBMC = test: Proliferation assay of PBMC from cancer patients; assay type: cell-based, human; settings: PBMC stimulated with 10 μg/ml peptide for 4, 7 and 11 days, 3H-thymidine
# Method: PBMC were isolated from freshly drawn heparinised blood by Ficol-Hypaque (Sigma) gradient centrifugation. PBMC (1.5×10^6 cells/well) were stimulated with single peptides (final concentration 10 μg/ml) in RPMI containing 5% pooled autologous human serum, 2 mM glutamine, 20 mM HEPES and Penicillin-streptomycin (1%) in a final volume of 2 ml. Stimulation with purified protein derivative, PPD (final concentration 10 μg/ml) served as a positive control for the proliferative capacity of PBMC. As a negative control PBMC were incubated with medium alone. The PBMC were cultured at 37° C. in an atmosphere of 5% CO2 for 4, 7 and 11 days. To assess proliferation at these times points 100 μl in triplicate from each culture was aliquoted into a round bottom well of a 96 well plate and ^3H-thymidine added (0.0185 MBq/well) and incubated at 37° C. for a further 8 hours. The cultures were harvested onto unifilter plates and incorporation of ^3H-thymidine was determined by β-scintillation counting. The results were assessed by calculating the stimulation index (SI) as the ratio of the mean of counts per minute (cpm) of epitope-stimulated to the mean of unstimulated cultures. The proliferative assay was considered positive when SI >2.5.
# splenocytes [4] = test: Ex vivo elispot assay on splenocytes of immunised HLA-DR1 / HLA-A2/DR1 (HHDII/DR1) transgenic mice; assay type: in vivo; settings: combination of 3 citrullinated peptides (3×10 μg) with CpG and MPLA; day 14; HLA-DR1 transgenic mice
# B16F1-DR4 cells = test: Tumour challenge with B16F1-DR4 cells; assay type: in vivo, HLA-DR4 transgenic mice; settings: peptide 25 μg in CpG and MPLA s.c. or DNA via gene gun, days 4, 11, 18; versus unimmunised control
# Method: For tumour challenge experiments mice were challenged with 2.5×10^4 B16 HHDII NYESO/TAP2 siβ2m 1F10 cells or B16 DR4 2E7 cells subcutaneously on the right flank 3 days prior to primary immunisation and then were immunised as above. Anti-IFNγ antibody (300 μg/dose), anti-IL-17 antibody (200 μg/dose) and anti-HLA-DR antibody (300 μg/dose) were administered i.p. in saline at days 2, 7, 11 and 14 post tumour implant. Anti-CD4 antibody (500 μg/dose) was administered i.p.in saline at days 2 and 8 post tumour implant. Tumour growth was monitored at 3-4 days intervals and mice were humanely euthanized once tumour reached ≥10 mm in diameter.
# [5] = 25 μg in MPLA and CPG s.c. days 0, 7, 14, HLA-DR1 transgenic mice
# [6] = 25 μg peptide with CpG and MPLA day 0, day 14
# [7] = 25 μg peptide with CpG and MPLA day 0, day 14, peptide 5 μM
# [8] = 25 μg peptide with CpG and MPLA day 0, peptide 5 μM
# [9] = 25 μg peptide with CpG and MPLA day 0, day 14, recall peptide not specified
substance,measurement,setting,value
AQKKLKLVRTSPEYGMP,immune response after immunisation,splenocytes [1]; HLA-DR1 transgenic mice,failed to stimulate any immune response
AQKKLKLVcitTSPEYGMP (AQKKLKLV[Cit]TSPEYGMP),"IFNγ/IL-17 response to the citrullinated peptide, mean",splenocytes [1]; [5],200 spots/million splenocytes
same,IFNγ/IL-17 response to the wild type peptide,splenocytes [1]; [5],no response
same,response in presence of MHC class II blocking mab,"splenocytes [1]; IFNγ elispot, HLA-A2/DR1 mice",blocked
EAENTLQSFRQDVDNASLA [Vimentin 20],"IL-17 response, screening of citrullinated 20 mer peptides",splenocytes [2],~400 spots/million splenocytes
EKLQEEMLQREEAENTLQS [Vimentin 19],"IL-17 response, screening of citrullinated 20 mer peptides",splenocytes [2],~400 spots/million splenocytes
KLATEYMSSARSLSSEEK [ING4 44-58],IFNg elispot response to citrullinated peptide over unmodified peptide or background control,splenocytes [3],significant responses
LPNFSSLNLRETNLDSLPL [wild type vim 415-433 peptide],"IL-10 response, mean","splenocytes [3]; 25 μg peptide in MPLA and CPG s.c., day 14, FIG. 30",580 spots/million splenocytes
same,IL-10 elispot responses,splenocytes [3]; [6],No significant IL-10 responses
same,"IL-2 elispot response to citrullinated peptide, mean",splenocytes [3]; [7],weak
same,"IL-17 elispot response to wild type peptide, mean",splenocytes [3]; [7],failed to stimulate a significant IFNγ or IL-17 response
same,"IFNγ elispot response to wild type peptide, mean",splenocytes [3]; [8],failed to stimulate a significant IFNγ or IL-17 response
same,patients showing a proliferative response (SI >2.5),PBMC,8/11
same,patients showing a proliferative response (SI >2.5),PBMC; listed as unmodified vim 415,Six of eleven
RAPFDLFENRKKKNN [HSP90 346-360],IFNg elispot response to citrullinated peptide over unmodified peptide or background control,splenocytes [3],significant responses
RKKLSELLRYYTSASGDEMVSL [HSP90 456-477],IFNg elispot response to citrullinated peptide over unmodified peptide or background control,splenocytes [3],significant responses
RLRSSVPGVRLLQDSVDFS [Vimentin 10],"IL-17 response, screening of citrullinated 20 mer peptides",splenocytes [4],350 spots/million splenocytes
RSYVTTSTRTYSLGSALRPSTS [wild type vim 28-49],IL-10 elispot responses,splenocytes [3]; [6],No significant IL-10 responses
same,IL-2 elispot responses,splenocytes [3]; [9],weak
same,IL-17 elispot responses,splenocytes [3]; [9],weak
same,"IFNγ elispot response to citrullinated peptide, mean",splenocytes [3]; [8],"1,100 /million splenocytes"
same,"IFNγ elispot response to wild type peptide, mean",splenocytes [3]; [8],700 /million splenocytes
same,patients showing a proliferative response (SI >2.5),PBMC,Two of eight
same,patients showing a proliferative response (SI >2.5),PBMC; listed as Wild type vim 28-49 peptide,2/11
same,anti-tumour response / survival,B16F1-DR4 cells,anti-tumour response that almost reached significance
SAVRLRSSVPGVR [wild type vim 65-77 peptide],"IL-17 elispot response to citrullinated peptide, mean",splenocytes [3]; [7],weak
same,"IL-17 elispot response to wild type peptide, mean",splenocytes [3]; [7],weak
same,"IFNγ elispot response to citrullinated peptide, mean",splenocytes [3]; [8],weak
same,"IFNγ elispot response to wild type peptide, mean",splenocytes [3]; [8],weak
same,patients showing a proliferative response (SI >2.5),PBMC; listed as vim 65,Four out of eight
same,patients showing a proliferative response (SI >2.5),PBMC; listed as vim 65-77,4/9
VPAYFNDAQRQATKDA [BiP 172-186],IFNg elispot response to citrullinated peptide over unmodified peptide or background control,splenocytes [3],significant responses
"Vim 28-49 only citrullinated at position 28: vimentin 28-49 peptide with citrulline only at position 28 ([Cit]SYVTTSTRTYSLGSALRPSTS; UniProt P08670 28-49, looked up, fragment)","IFNγ elispot response against vimentin 28-49 triple, double and single citrullinated peptides",splenocytes [3],gave a response to the tri-citrullinated peptide and the Vim 45 citrullinated peptide
YSCVGVFKNGRVEII [BiP 39-53],IFNg elispot response to citrullinated peptide over unmodified peptide or background control,splenocytes [3],significant responses
"mouse vim 415 cit: murine vimentin 415-433 citrullinated peptide (LPTFSSLNL[Cit]ETNLESLPL; UniProt P20152 415-433, looked up, fragment)",influence of natural Treg depletion (anti-CD25 mAb) on the response,"splenocytes [3]; 25 μg peptide day 0, PC61 three days before, IFNγ elispot day 14",no influence on the frequency or the avidity of the response
"vim 28 and 36 citrullinated peptide: vimentin 28-49 peptide citrullinated at positions 28 and 36 ([Cit]SYVTTST[Cit]TYSLGSALRPSTS; UniProt P08670 28-49, looked up, fragment)","IFNγ elispot response against vimentin 28-49 triple, double and single citrullinated peptides",splenocytes [3],responded to the triple
